# In PMC12303054, “First-in-class inhibitors of Nsp15 endoribonuclease of SARS-CoV-2: Modeling, synthesis, and enzymatic assay of thiazolidinedione and rhodanine analogs” (The Journal of Biological Chemistry, 2025):
# Where “and” joins values, the source holds several entries; their conditions need not be identical. Equal entries are not always repeated. Entries after “also recorded” stand apart in the source; their conditions may differ. Where two headings read alike, the source gives them in different places.
# Assays:
# [1] = target: T1, wildtype SARS-CoV-2 Nsp15 (Severe acute respiratory syndrome coronavirus 2, UniProt P0DTD1); test: biochemical; conditions: for IC50: 150 nM enzyme, 1.2 μM substrate, 30 min, 25 °C, mean (SD), duplicates; for change of inhibitory effect relative to parent analog: comparison of IC50 values; for IC50 versus time: IC50 calculated every 5 min for 30 min; for inhibition model: extra sum-of-squares F test; for Vmax: fit parameter of mixed inhibition model for the named inhibitor
# [2] = target: T1, wildtype SARS-CoV-2 Nsp15; test: Nsp15 inhibition in HEPES buffer assay conditions; assay type: biochemical; conditions: 10 nM Nsp15, 500 nM substrate, 100 μM compound
# SARS-CoV-2 = SARS-CoV-2 plaque assay in VeroE6/TMPRSS2 cells; assay type: cell-based; conditions: for IC50: 24 h infection, MOI = 0.1, read-out: IC50 (viral inhibition, plaque assay)
# in vitro = assay type: cell-based; conditions: African green monkey, uninfected cells, intracellular ATP
# Method: (§1) Initially, we grew VeroE6/TMPRSS2 cells overnight in 96-well plates at 10,000 cells per well. The next day, we added increasing concentrations of the tested compound (500, 200, 100, 50, 20, 10, 5, 2, and 1 μM) and DMSO as a control. We let the cells incubate with inhibitors for 24 h. After 24 h, we measured the viability of these cells using the CellTiter-Glo Luminescent Cell Viability Assay (Promega), according to the manufacturer’s instructions. We incubated cells in 100 μl of media with 100 μl of CellTiter-Glo reagent, which contains Ultra-Glo luciferase and the substrate luciferin. The luciferase converts luciferin to luminescent oxyluciferin in the presence of ATP. Viable cells produce more ATP and generate a stronger luminescent signal. We mixed samples by shaking for 10 min and measured luminescence by a VICTOR Nivo Plate Reader (Avantor Science Central).
# SARS-CoV-2 RNA = assay type: cell-based; conditions: 24 h infection, MOI = 0.1
# SARS-CoV-2 Nsp15 = SARS-CoV-2 Nsp15 (Severe acute respiratory syndrome coronavirus 2, UniProt P0DTD1); test: Reversibility by the dilution method; assay type: biochemical; conditions: preincubated 60 min, diluted 1:100
# Nsp15 = conditions: cited from earlier work
# VeroE6/TMPRSS2 cells = test: in vitro; assay type: cell-based; conditions: uninfected cells, 24 h, intracellular ATP
# Method: as §1
# [3] = noncompetitive inhibition model, IC50-to-Ki converter, read-out: Predicted Ki
# [4] = mixed inhibition model fit, mean ± SD
# [5] = mixed inhibition model fit, mean ± SD, read-out: Ki
# [6] = Severe acute respiratory syndrome coronavirus 2, VeroE6/TMPRSS2, 24 h
Structure (SMILES),inhibitory effect on Nsp15 activity [1],IC50 [1],change of inhibitory effect relative to parent analog [1],"Ki [1, 3]",also measured
"CN1C(=O)SC(=CC=Cc2cccc3ccccc23)C1=O [KCO250, 3-methyl-5-(3-naphthalen-1-yl-allylidene)-thiazolidine-2,4-dione]",did not inhibit Nsp15 activity; also recorded: lose their inhibitory effect,> 1000 µM,,,
"O=C1NC(=O)C(=CC=Cc2cccc3ccccc23)S1 [KCO231, 5-(3-naphthalen-1-yl-allylidene)-thiazolidine-2,4-dione]",,4.41 µM,doubled the inhibitory effect,4340 nM,
"O=C1NC(=S)SC1=CC=Cc1ccnc2ccccc12 [KCO237, 5-(3-quinolin-4-yl-allylidene)-2-thioxo-thiazolidine-4-one]",submicromolar levels,0.304 µM,fivefold increase in potency compared with KCO048,229 nM,"Ki ([1]; Cheng–Prusoff equation, noncompetitive inhibition assumed, read-out: predicted Ki): 230 nM; IC50 versus time [1]: consistent through the period of the assay; also recorded: remained constant over the time of the assay; inhibition model [1]: reversible mixed inhibition model; Vmax [1]: 1.57 ± 0.0568 µM/min; α [1, 4]: 0.343 ± 0.188; Ki [1, 5]: 318 ± 134 nM; inhibition under HEPES assay conditions [2]: inhibited Nsp15 more potently than tipiracil under these conditions; IC50 (SARS-CoV-2): 13.9 ± 1.95 µM; IC50 (SARS-CoV-2; [6]): 14 µM; CC50 at 24 h (in vitro): > 500 µM; intracellular SARS-CoV-2 RNA (SARS-CoV-2 RNA): significantly reduced viral RNA in a dose-dependent manner; Nsp15 activity after inhibitor dilution (SARS-CoV-2 Nsp15): recovered its activity"
Oc1c(Cl)cc(Cl)c(Cl)c1Cc1c(O)c(Cl)cc(Cl)c1Cl [hexachlorophene],,,,,IC50 (Nsp15): 1 µM
"O=C1NC(=O)C(=CC=Cc2cncc3ccccc23)S1 [KCO234, 5-(3-isoquinolin-4-yl-allylidene)-thiazolidine-2,4-dione]",,7.38 µM,did not enhance inhibitory activity,7300 nM,
"CN1C(=O)SC(=CC=Cc2c3ccccc3cc3ccccc23)C1=O [KCO238, 3-methyl-5-(3-anthracen-9-yl-allylidene)-thiazolidine-2,4-dione]",did not inhibit Nsp15 activity; also recorded: lose their inhibitory effect,106 µM,,,
"N=C1CCCN1Cc1nc(O)nc(O)c1Cl [Tipiracil, tipiracil, reference compound]",did not inhibit Nsp15 activity,> 1000 µM,,,inhibition under HEPES assay conditions [2]: did inhibit Nsp15 under these conditions but to a lesser extent than KCO237 and KCO251; IC50 (Nsp15): 7.5 µM
"O=C1NC(=S)SC1=CC=Cc1cccc2ccccc12 [KCO249, 5-(3-naphthalen-1-yl-allylidene)-2-thioxo-thiazolidin-4-one]",low micromolar concentrations,,enhanced its inhibitory effect by sixfold,1280 nM,
"O=C1NC(=O)C(=CC=Cc2c3ccccc3cc3ccccc23)S1 [KCO035, 5-(3-anthracen-9-yl-allylidene)-thiazolidine-2,4-dione]",mild inhibitory effect,7.21 µM,,7140 nM,inhibition at 100 µM ([1]; 100 μM compound): ~80%
"O=C1NC(=O)C(=CC=Cc2ccc3cnccc3c2)S1 [KCO236, 5-(3-isoquinolin-6-yl-allylidene)-thiazolidine-2,4-dione]",submicromolar levels,0.932 µM,moderate increase in inhibitory effect,857 nM,
O=C1C(SCCO)=C(SCCO)C(=O)c2ccccc21 [NSC95397],,,,,IC50 (Nsp15): 43 µM
"O=C1NC(=S)SC1=CC=Cc1c2ccccc2cc2ccccc12 [KCO230, 5-(3-anthracen-9-yl-allylidene)-2-thioxo-thiazolidin-4-one]",,4.58 µM,nearly doubled,4500 nM,
"O=C1NC(=O)C(=CC=Cc2ccccc2)S1 [KCO036, 5-(3-Phenyl-allylidene)-thiazolidine-2,4-dione]",weak inhibitor,9.4 µM,reduced inhibitory effect,9330 nM,
"O=C1NC(=S)SC1=CC=Cc1cncc2ccccc12 [KCO251, 5-(3-isoquinolin-4-yl-allylidene)-2-thioxo-thiazolidin-4-one]",submicromolar levels,0.931 µM,eightfold increase in inhibition potency,856 nM,"IC50 versus time [1]: consistent through the period of the assay; also recorded: remained constant over the time of the assay; inhibition model [1]: reversible mixed inhibition model; Vmax [1]: 3.38 ± 0.170 µM/min; α [1, 4]: 0.293 ± 0.280; Ki [1, 5]: 471 ± 330 nM; inhibition under HEPES assay conditions [2]: inhibited Nsp15 more potently than tipiracil under these conditions; selectivity index (SI) (SARS-CoV-2; CC50 over IC50): ~13 and > 10; IC50 (SARS-CoV-2; [6]): 24 µM; CC50 at 24 h (in vitro): > 300 µM; CC50 (VeroE6/TMPRSS2 cells): 311 ± 120 µM; intracellular SARS-CoV-2 RNA (SARS-CoV-2 RNA): significantly reduced viral RNA in a dose-dependent manner; Nsp15 activity after inhibitor dilution (SARS-CoV-2 Nsp15): recovered its activity"
O=C1NC(=O)C(=CC=Cc2ccnc3ccccc23)S1 [KCO048],low micromolar concentrations,1.35 µM,threefold greater inhibitory effect than KCO231,1270 nM,
"O=C1NC(=O)C(=CC=Cc2cccc3ccncc23)S1 [KCO235, 5-(3-isoquinolin-8-yl-allylidene)-thiazolidine-2,4-dione]",,4.17 µM,moderate increase in inhibitory effect,4100 nM,
Oc1ccc2ccccc2c1SSc1c(O)ccc2ccccc12 [IPA-3],,,,,IC50 (Nsp15): 7 µM; inhibition mechanism (Nsp15): irreversibly inhibited Nsp15
